Data on seven molecules can be found in patent EP0335745A1, “Process for producing pyrid-4-ones” (THE ROYAL FREE HOSPITAL SCHOOL OF MEDICINE, priority 1988, dated 1989).

The test system of data set [1] is iron loaded ⁵⁹Fe transferrin labelled mice. Briefly: Iron mobilisation (59Fe excretion) from iron loaded 59Fe transferrin labelled mice. Format: in vivo. Conditions: dose 10mg; for %⁵⁹Fe excretion X ± SE: mice 31-35g, mean of 3 days before chelator administration = 100%. The source says:
Iron mobilisation from iron loaded ⁵⁹Fe transferrin labelled mice by the 1-alkyl-2-ethyl-3-hydroxypyrid-4-ones was studied as previously described.

Data set [2] can be described thus: pKa determination of the chelators. Format: physicochemical.
Data set [3] can be described thus: n-octanol/water (PBS) partition coefficient (K par) of the chelators and their iron complexes. It counts as physicochemical. To be noted: for K par Chelator / K par Iron Complex: n-octanol/water (PBS), Table 4; for K par Chelator / Kpar Chelator: free chelator; for K par Iron Complex: iron complex of the chelator; for Kpar Chelator / Kpar iron Complex: n-octanol/phosphate buffer saline (PH 7.3), Table 7. The protocol: The n-octanol/water (PBS) partition coefficients (K par) of the chelators and their iron complexes were determined using a previously determined method.
(§1) The partition coefficients of the chelators and their iron complexes were determined using a mixture of n-octanol and phosphate buffer saline at pH 7.3 as previously described. The effect of the chelators on the incorporation of iron containing traces of ⁵⁹Fe into red blood cells was studied as previously described by incubating the chelator iron complexes with packed red blood cells at 37°C, withdrawing aliquots, centrifuging and measuring the incorporation of ⁵⁹Fe into the red blood cells.

A further data set deals with T1, human transferrin (Homo sapiens, UniProt P02787).
T1 construct: purchased Sigma
The data set can be described thus: Iron mobilisation from 59Fe transferrin by dialysis against chelator solution. It counts as biochemical. Conditions: chelator 4x10⁻³M, 37°C, pH 7.3, 2 x PBS. As to the method: Human apotransferrin (Sigma) was radioactively labelled with ⁵⁹Fe and saturated with iron as previously described. Samples (1.5ml) of the ⁵⁹Fe transferrin (0.54mg protein, 0.75 µg iron, 0.07 µCi ⁵⁹Fe) were enclosed in a dialysis bag and dialysed against a chelator solution (10ml, 4mM) by continuous stirring at 37°C. Samples (1ml) of the dialysate were removed at different time intervals, the ⁵⁹Fe activity measured and then returned back into the incubation mixture. Ferritin solution and haemosiderin solid were isloated from a spleen of a thalassemia patient and samples containing the same amount of iron (0.25mg, 1.5ml) were dialysed at 37°C against a chelator solution (4mM, 10ml) over a 12 day period. The amount of iron immobilised was estimated spectrophotometrically by measuring the visible absorbance of the dialysate and by using the extinction coefficient of the chelator iron complex (Fig 3, Table 6). All the protein incubations with the chelators were carried out in the 2xPBS pH 7.3.
Haemosiderin (0.25mg iron, 16.5% w/w iron, […]) ferritin (0.25mg iron, 10.7% w/w iron, 1.5ml) and transferrin (0.75ug iron, 0.54mg protein, 0.07 uCi ⁵⁹Fe, 1.5ml) in dialysis bags were dialysed against the chelators (4x10⁻³M, 10ml) at 37°C, pH 7.3 in 2 x PBS by continuous stirring. Iron mobilisation was estimated from samples of the dialysates taken at different time intervals as explained in the Materials and Methods section.

The next data set has as its system haemosiderin. Briefly: Iron mobilisation from haemosiderin by dialysis against chelator solution. It counts as biochemical, human. To be noted: chelator 4x10⁻³M, 37°C, pH 7.3, 2 x PBS, * = duplicate samples. As to the method:
• Fig 1: pH titration of the chelator iron complexes. Chelators (2mM in 0.1M NaCl, 25ml) and freshly prepared iron (III) chloride (0.5mM in 0.1M NaCl, 25ml) were mixed and titrated with HCl (10M) and NaOH (5M). The absorbance of the chelator iron mixture at 460nm was measured after each pH change. 1-Methyl- (Δ), 1-ethyl- (□) and 1-propyl- (◇) -2-ethyl-3-hydroxypyrid-4-ones. • Fig 2: • A. Job plots of the 1-alkyl-2-ethyl-3-hydroxypyrid-4-ones with iron at pH 7.3. Chelators (2mM in […] 0-5ml) and iron (2mM in 0.1M NaCl, 0-5ml) were mixed at different molar ratios to a final volume of 5ml. 4 x PBS (5ml), pH 7.3 was then added and the absorbance at 460nm measured. […] Theoretical Job plots for 1:1, 2:1, 3:1 chelator:iron complexes were obtained using the maximum absorbance values from the Job plots in A. 1:1 (◇) 2:1 (□), 3:1 (Δ). • Fig. 3: Iron mobilisation from human ferritin and haemosiderin using 1-alkyl-2-ethyl-3-hydroxypyrid-4-ones. […] The progress of the reaction was followed by measuring the absorbance at 460nm of the dialysate at different time intervals.
Human apotransferrin (Sigma) was radioactively labelled with ⁵⁹Fe and saturated with iron as previously described. […] Samples (1ml) of the dialysate were removed at different time intervals, the ⁵⁹Fe activity measured and then returned back into the incubation mixture. […]

In the next data set the test system is loaded mice and rabbits. Conditions: doses of up to 200 mg/kg, also non iron loaded mice; cited from earlier work.
The next data set relates to male Sprague Dawley rats. Briefly: Lethal dose range in rats, intraperitoneal administration. Format: in vivo. The protocol:
The three 1-alkyl-3-hydroxy-2-methylpyrid-4-ones dissolved in phosphate buffer saline were administered intraperitoneally to groups of three male Sprague Dawley rats (60-90g) at different doses until a near maximum non-lethal dose was established.

The next data set deals with red blood cells. The data set can be described thus: Red blood cell permeability: incorporation of 59Fe into red blood cells in the presence of the chelators. It counts as cell-based. To be noted: iron 2.5 x 10⁻⁵M, chelators 18 x 10⁻⁵M, packed red blood cells, 37°C. As to the method:
as §1

Where [4] appears, read: pKa of the hydroxyl group, read-out: Pka(2).
Where [5] appears, read: male, Sprague Dawley, rat, in vivo, ip.

Read-outs that look alike come from different tables or passages of the source.

T1 sequence (P02787 20-698): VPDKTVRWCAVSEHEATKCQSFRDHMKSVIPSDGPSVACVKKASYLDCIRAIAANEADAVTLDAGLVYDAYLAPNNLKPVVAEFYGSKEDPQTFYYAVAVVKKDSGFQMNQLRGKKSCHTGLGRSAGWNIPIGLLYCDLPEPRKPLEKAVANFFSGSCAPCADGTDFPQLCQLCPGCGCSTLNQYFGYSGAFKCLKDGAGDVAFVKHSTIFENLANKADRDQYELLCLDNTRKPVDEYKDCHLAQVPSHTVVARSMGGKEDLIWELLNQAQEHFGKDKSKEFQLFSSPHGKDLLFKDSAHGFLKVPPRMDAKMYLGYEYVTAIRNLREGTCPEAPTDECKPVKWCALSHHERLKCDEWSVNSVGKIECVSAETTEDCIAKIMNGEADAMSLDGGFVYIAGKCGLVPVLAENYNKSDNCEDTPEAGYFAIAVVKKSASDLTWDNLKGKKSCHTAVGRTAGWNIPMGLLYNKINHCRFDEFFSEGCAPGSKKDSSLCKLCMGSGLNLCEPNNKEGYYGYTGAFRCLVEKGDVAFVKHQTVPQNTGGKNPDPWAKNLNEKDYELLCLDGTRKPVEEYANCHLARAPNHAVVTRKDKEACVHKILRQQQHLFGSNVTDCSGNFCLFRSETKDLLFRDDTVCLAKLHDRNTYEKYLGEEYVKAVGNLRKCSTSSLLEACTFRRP

Consider `CCc1c(O)c(=O)ccn1CC` [Example 5, 1,2-diethyl-3-hydroxypyrid-4-one], for which the “%⁵⁹Fe excretion X ± SE” value in data set [1] (ig) is 309 ± 22%. In addition, in data set [1] (ip), the “%⁵⁹Fe excretion X ± SE” value stood at 371 ± 46%. Moreover, in data set [2] (setting [4]), the pKa (commonly the negative logarithm of the acid dissociation constant) was 10.1. Further, in data set [2] (read-out: PKa(1)), the pKa was found to be 3.7. For the same molecule, in data set [3], the “K par Chelator” value was 1.4 and the “K par Iron Complex” value amounted to 0.28. Further, at human transferrin, the “Percentage Iron Removal Transferrin ⁵⁹Fe 1h” value is reported as 24.9, the “Percentage Iron Removal Transferrin ⁵⁹Fe 2h” value amounted to 51.8 and the “Percentage Iron Removal Transferrin ⁵⁹Fe 8h” value was found to be 96.6.
Consider `CCCn1ccc(=O)c(O)c1CC` [Example 6, 2-ethyl-3-hydroxy-1-propylpyrid-4-one], for which the “%⁵⁹Fe excretion X ± SE” value in data set [1] (ig) stood at 163 ± 25%. For the same molecule, the “%⁵⁹Fe excretion X ± SE” value in data set [1] (ip) is listed as 334 ± 64%. Further, the “death of mice before the completion of the treatment” value in data set [1] (mice, ip or ig, 11 administrations) is “caused death to two mice”. In addition, the pKa in data set [2] (setting [4]) stood at 10.1. Besides, in data set [2] (read-out: PKa(1)), the pKa was 3.4. Besides, in data set [3], the “K par Chelator” value amounted to 4.2 and the “K par Iron Complex” value was determined as 9.68. For the same molecule, on human transferrin, the “Percentage Iron Removal Transferrin ⁵⁹Fe 1h” value turned out to be 23.2, the “Percentage Iron Removal Transferrin ⁵⁹Fe 2h” value was determined as 50.3 and the “Percentage Iron Removal Transferrin ⁵⁹Fe 8h” value was 97.6. Moreover, in the data set with haemosiderin (24h), the “Percentage Iron Removal Haemosiderin 24h” value is on record as 27.8. Further, the “Percentage Iron Removal Haemosiderin 12d” value in the data set with haemosiderin (12d) amounted to 74.5.
For the molecule `CCc1c(O)c(=O)ccn1C` [Example 4, 2-Ethyl-3-hydroxy-1-methylpyrid-4-one], the “%⁵⁹Fe excretion X ± SE” value in data set [1] (ig) worked out at 362 ± 53%. Also, the “%⁵⁹Fe excretion X ± SE” value in data set [1] (ip) amounted to 415 ± 42%. The pKa in data set [2] (setting [4]) amounted to 9.8. Also, in data set [2] (read-out: PKa(1)), the pKa came out at 3.7. In data set [3], the “K par Chelator” value came out at 0.4 and the “K par Iron Complex” value was 0.02. Further, at human transferrin, the “Percentage Iron Removal Transferrin ⁵⁹Fe 1h” value was 36.0, the “Percentage Iron Removal Transferrin ⁵⁹Fe 2h” value turned out to be 56.6 and the “Percentage Iron Removal Transferrin ⁵⁹Fe 8h” value was 100.0.
Take `CCn1ccc(=O)c(O)c1C` [Example 2, 1-Ethyl-3-hydroxy-2-methylpyrid-4-one]: the increasing iron excretion entry with loaded mice and rabbits was “effective”. Also, the “Lethal Dose (range)” value in the data set on male Sprague Dawley rats (rats, intraperitoneally, range of doses, the higher being lethal and the lower a non-lethal dose) was 400 to 500 mg/kg. Besides, in the data set on red blood cells, the “⁵⁹Fe incorporation (%) 20 min” value is recorded as 5.0% and the “⁵⁹Fe incorporation (%) 1h” value stood at 10%. For the same molecule, in data set [2] (setting [4]), the pKa came out at 10.3. Also, the pKa in data set [2] (read-out: PKa(1)) was determined as 3.6. Also, in data set [3], the “Kpar Chelator” value is reported as 0.47, the “Kpar iron Complex” value is listed as 0.52, the “K par Chelator” value worked out at 0.37 and the “K par Iron Complex” value amounted to 0.52.
On to `CCCn1ccc(=O)c(O)c1C` [Example 3, 3-Hydroxy-2-methyl-1-propylpyrid-4-one], for which, in the data set with male Sprague Dawley rats (setting [5]), the “Lethal Dose (range)” value was in the range of 150 to 200 mg/kg. For the same molecule, in the data set with red blood cells, the “⁵⁹Fe incorporation (%) 20 min” value is 85% and the “⁵⁹Fe incorporation (%) 1h” value is listed as 86%. For the same molecule, in data set [2] (setting [4]), the pKa worked out at 10.2. In data set [2] (read-out: PKa(1)), the pKa was determined as 3.7.
For `Cc1c(O)c(=O)ccn1C` [Example 1, 1,2-Dimethyl-3-hydroxypyrid-4-one], the increasing iron excretion entry in the data set on loaded mice and rabbits is reported as “effective”. For the same molecule, the “Lethal Dose (range)” value in the data set on male Sprague Dawley rats (setting [5]) fell in the range of 600 to 700 mg/kg. For the same molecule, in the data set on red blood cells, the “⁵⁹Fe incorporation (%) 20 min” value is 5.0% and the “⁵⁹Fe incorporation (%) 1h” value was determined as 5.0%. The pKa in data set [2] (setting [4]) worked out at 9.7. Moreover, the pKa in data set [2] (read-out: PKa(1)) turned out to be 3.3. Also, in data set [3], the “Kpar Chelator” value is reported as 0.19, the “Kpar iron Complex” value is reported as 0.24, the “K par Chelator” value turned out to be 0.19 and the “K par Iron Complex” value was found to be 0.24. At human transferrin, the “Percentage Iron Removal Transferrin ⁵⁹Fe 1h” value was 37.3, the “Percentage Iron Removal Transferrin ⁵⁹Fe 2h” value is recorded as 69.9 and the “Percentage Iron Removal Transferrin ⁵⁹Fe 8h” value came to 99.5.
Regarding `CC(=O)N(O)CCCCCNC(=O)CCC(=O)N(O)CCCCCNC(=O)CCC(=O)N(O)CCCCCN` [Desferrioxamine, reference compound], the “%⁵⁹Fe excretion X ± SE” value in data set [1] (ip) is 381 ± 49%.
